For test [1], the system named is dsDNA duplex (DNA, duplex) GTAACTAGTTAACGATC/GATCGTTAACTAGTTAC
In words: 1H-NMR titration. The following applies: 20 mM KCl; 10 mM KH2PO4, pH 7.0, 25 °C; 0.2 mM DNA; up to 4 equivalents; no shifts.

Test [2] concerns mutTel24 (DNA, G4) TTGGGTTAGGGTTAGGGTTAGGGA
In words: 1H-NMR titration. Particulars: 20 mM KCl; 10 mM KH2PO4, pH 7.0, 25 °C; 0.2 mM DNA; up to 4 equivalents; no shifts.

Test [3] concerns c-KIT2 (DNA, G4) CGGGCGGGCGCTAGGGAGGGT
The experiment in a line: ITC. The following applies: 20 mM KCl; 10 mM KH2PO4, pH 7.0, 25 °C; ~20 µM DNA; up to 8 equivalents; Kb and n not determinable.

Test [4] relates to c-MYC (DNA, G4) TGAGGGTGGGTAGGGTGGGTAA
In words: ITC. The following applies: 20 mM KCl; 10 mM KH2PO4, pH 7.0, 25 °C; ~20 µM DNA; up to 8 equivalents; Kb and n not determinable.

For test [5], the system named is c-KIT2 (DNA, G4) CGGGCGGGCGCTAGGGAGGGT
The experiment in a line: 1H-NMR titration. The following applies: 20 mM KCl; 10 mM KH2PO4, pH 7.0, 25 °C; 0.2 mM DNA; up to 8 equivalents; shifts up to ~50 Hz, 5′ G-quartet.

In test [6] the test system is c-MYC (DNA, G4) TGAGGGTGGGTAGGGTGGGTAA
In words: 1H-NMR titration. The following applies: 20 mM KCl; 10 mM KH2PO4, pH 7.0, 25 °C; 0.2 mM DNA; up to 8 equivalents; shifts up to ~70 Hz, mainly 3′ G-quartet.

In the case of `CC[C@]1(O)C[C@H]2CN(CCc3c([nH]c4ccccc34)[C@@](C(=O)OC)(c3cc4c(cc3OC)N(C=O)[C@H]3[C@@](O)(C(=O)OC)[C@H](OC(C)=O)[C@]5(CC)C=CCN6CC[C@]43[C@@H]65)C2)C1`, the binding result is reported as “no” in test [1], “no” in test [2], “weak” in test [5] and “weak” in test [6]. Besides, the “ΔH°” value in test [3] is −52.8 ± 5.8 kJmol^−1; in test [4], −11.7 ± 2.0 kJmol^−1.

The record behind these values is article PMC12524732 (2025).
